For the assay, the target named is CFTR-mediated chloride transport (Homo sapiens, UniProt P13569). Description: Corrector Assay A - membrane potential dye assay (enteroid cells). The settings on record: for Corrector Assay A % activity: % of chloride transport of triple combination control (1 μM (14S)-dispiro macrocycle + 3 μM tezacaftor + 300 nM ivacaftor); for EC50: read-out: Corrector Assay A EC50, human intestinal enteroid cells, 18-24 h incubation, acute 10 μM forskolin + 300 nM ivacaftor.

Some results are limits rather than exact numbers.

`CC(C)(C)c1ccc2c(n1)N1C[C@@H](CCC(c3cc(CN)ccn3)Nc3cccc(n3)S(=O)(=O)NC2=O)CC1(C)C` (single isomer, unassigned) [Compound 116]: the “Corrector Assay A % activity” value is reported as “+++ (+++ is >60%)” and the EC50 was under 1 µM.
On the same counts, the results for `CC(C)(C)OC(=O)NCc1ccnc(C2CC[C@@H]3CN(c4nc(C(C)(C)C)ccc4C(=O)NS(=O)(=O)c4cccc(n4)N2)C(C)(C)C3)c1` (single isomer, unassigned) [Compound 119] are “+++ (+++ is >60%)” and under 1 µM.
For `CC(C)(C)OC(=O)NCc1ccnc(C2CC[C@@H]3CN(c4nc(C(C)(C)C)ccc4C(=O)NS(=O)(=O)c4cccc(n4)N2)C(C)(C)C3)c1` (single isomer, unassigned) [Compound 120] the same measures were “+++ (+++ is >60%)” and under 1 µM.
In the case of `CC(C)(C)c1ccc2c(n1)N1C[C@@H](CC[C@@H](c3cc(C4CCOCC4)ccn3)Nc3cccc(n3)S(=O)(=O)NC2=O)CC1(C)C` (single isomer, unassigned) [Compound 121], the “Corrector Assay A % activity” value is reported as “+++ (+++ is >60%)” and the EC50 was under 1 µM.
Regarding `CC(C)(C)c1ccc2c(n1)N1C[C@@H](CC[C@@H](c3cc(C4CCOCC4)ccn3)Nc3cccc(n3)S(=O)(=O)NC2=O)CC1(C)C` (single isomer, unassigned) [Compound 122], the “Corrector Assay A % activity” value is reported as “++ (++ is 30-60%)” and the EC50 was under 1 µM.
As to `CC(C)(C)c1ccc2c(n1)N1C[C@@H](CC[C@@H](c3cc(C4=CCOCC4)ccn3)Nc3cccc(n3)S(=O)(=O)NC2=O)CC1(C)C` (single isomer, unassigned) [Compound 125], the “Corrector Assay A % activity” value is on record as “+++ (+++ is >60%)” and the EC50 is under 1 µM.
On the same counts, the results for `CC(C)(C)c1ccc2c(n1)N1C[C@@H](CC[C@@H](c3cc(C4=CCOCC4)ccn3)Nc3cccc(n3)S(=O)(=O)NC2=O)CC1(C)C` (single isomer, unassigned) [Compound 126] are “+++ (+++ is >60%)” and under 1 µM.
On the same counts, the results for `CC(C)(C)c1ccc2c(n1)N1C[C@@H](CCC(c3cc(Cl)ccn3)Nc3cccc(n3)S(=O)(=O)NC2=O)CC1(C)C` (single isomer, unassigned) [Compound 127] are “+++ (+++ is >60%)” and under 1 µM.
Turning to `CC(C)(C)c1ccc2c(n1)N1C[C@@H](CCC(c3cc(Cl)ccn3)Nc3cccc(n3)S(=O)(=O)NC2=O)CC1(C)C` (single isomer, unassigned) [Compound 128], the “Corrector Assay A % activity” value is “+++ (+++ is >60%)” and the EC50 is under 1 µM.
As for `CC(C)(C)c1ccc2c(n1)N1C[C@@H](CCC(c3cc(C#N)ccn3)Nc3cccc(n3)S(=O)(=O)NC2=O)CC1(C)C` (single isomer, unassigned) [Compound 143], the “Corrector Assay A % activity” value is “++ (++ is 30-60%)” and the EC50 was under 1 µM.
On the same counts, the results for `CC(C)(C)c1ccc2c(n1)N1C[C@@H](CCC(c3cc(C#N)ccn3)Nc3cccc(n3)S(=O)(=O)NC2=O)CC1(C)C` (single isomer, unassigned) [Compound 144] are “+++ (+++ is >60%)” and under 1 µM.
Regarding `CC(C)(C)c1ccc2c(n1)N1C[C@@H](CCC(c3ccc(CCC#N)cn3)Nc3cccc(n3)S(=O)(=O)NC2=O)CC1(C)C` (single isomer, unassigned) [Compound 145], the “Corrector Assay A % activity” value was “++ (++ is 30-60%)” and the EC50 is under 1 µM.
Turning to `CC(C)(C)c1ccc2c(n1)N1C[C@@H](CCC(c3ccc(C4CCOCC4)cn3)Nc3cccc(n3)S(=O)(=O)NC2=O)CC1(C)C` (single isomer, unassigned) [Compound 155], the “Corrector Assay A % activity” value was “+++ (+++ is >60%)” and the EC50 was under 1 µM.
On the same counts, the results for `CC(C)(C)c1ccc2c(n1)N1C[C@@H](CCC(c3ccc(Br)cn3)Nc3cccc(n3)S(=O)(=O)NC2=O)CC1(C)C` (single isomer, unassigned) [Compound 171] are “++ (++ is 30-60%)” and under 1 µM.
For `CC(C)(C)c1ccc2c(n1)N1C[C@@H](CCC(c3ccc(Br)cn3)Nc3cccc(n3)S(=O)(=O)NC2=O)CC1(C)C` (single isomer, unassigned) [Compound 172] the same measures were “+++ (+++ is >60%)” and under 1 µM.
On the same counts, the results for `CC(C)(C)c1cccc(C2CC[C@@H]3CN(c4nc(C(C)(C)C)ccc4C(=O)NS(=O)(=O)c4cccc(n4)N2)C(C)(C)C3)n1` (single isomer, unassigned) [Compound 178] are “+ (+ is <30%)” and under 1 µM.
Regarding `CC(C)(C)c1cccc(C2CC[C@@H]3CN(c4nc(C(C)(C)C)ccc4C(=O)NS(=O)(=O)c4cccc(n4)N2)C(C)(C)C3)n1` (single isomer, unassigned) [Compound 179], the “Corrector Assay A % activity” value is on record as “++ (++ is 30-60%)” and the EC50 is under 1 µM.
As to `CC(C)(C)c1ccc(C2CC[C@@H]3CN(c4nc(C(C)(C)C)ccc4C(=O)NS(=O)(=O)c4cccc(n4)N2)C(C)(C)C3)nc1` (single isomer, unassigned) [Compound 186], the “Corrector Assay A % activity” value is “+++ (+++ is >60%)” and the EC50 is under 1 µM.
On to `CC(C)(C)c1ccc(C2CC[C@@H]3CN(c4nc(C(C)(C)C)ccc4C(=O)NS(=O)(=O)c4cccc(n4)N2)C(C)(C)C3)nc1` (single isomer, unassigned) [Compound 187], for which the “Corrector Assay A % activity” value is reported as “++ (++ is 30-60%)” and the EC50 was under 1 µM.
In the case of `CC(C)(C)c1ccc2c(n1)N1C[C@@H](CCC(c3ccc(CN)cn3)Nc3cccc(n3)S(=O)(=O)NC2=O)CC1(C)C` (single isomer, unassigned) [Compound 197], the “Corrector Assay A % activity” value is recorded as “++ (++ is 30-60%)” and the EC50 was under 1 µM.
Consider `CC(C)(C)c1ccc2c(n1)N1C[C@@H](CCC(c3ccc(C#N)cn3)Nc3cccc(n3)S(=O)(=O)NC2=O)CC1(C)C` (single isomer, unassigned) [Compound 205], for which the “Corrector Assay A % activity” value is “+++ (+++ is >60%)” and the EC50 is under 1 µM.
In the case of `CC(C)(C)c1ccc2c(n1)N1C[C@@H](CC[C@@H](c3ncccn3)Nc3cccc(n3)S(=O)(=O)NC2=O)CC1(C)C` (single isomer, unassigned) [Compound 206], the “Corrector Assay A % activity” value is “+++ (+++ is >60%)” and the EC50 lay in the range of 1 to 3 µM.
On the same counts, the results for `CC(C)(C)c1ccc2c(n1)N1C[C@@H](CC[C@@H](c3ncccn3)Nc3cccc(n3)S(=O)(=O)NC2=O)CC1(C)C` (single isomer, unassigned) [Compound 207] are “+++ (+++ is >60%)” and under 1 µM.
For `CC(C)(C)c1ccc2c(n1)N1C[C@@H](CCC(c3ccc(Cl)cn3)Nc3cccc(n3)S(=O)(=O)NC2=O)CC1(C)C` (single isomer, unassigned) [Compound 208] the same measures were “+++ (+++ is >60%)” and under 1 µM.
For `CC(C)(C)c1ccc2c(n1)N1C[C@@H](CCC(c3ccc(Cl)cn3)Nc3cccc(n3)S(=O)(=O)NC2=O)CC1(C)C` (single isomer, unassigned) [Compound 209] the same measures were “++ (++ is 30-60%)” and under 1 µM.

These data come from patent US20220313698A1, “MODULATORS OF CYSTIC FIBROSIS TRANSMEMBRANE CONDUCTANCE REGULATOR” (Vertex Pharmaceuticals Incorporated, priority 2019, published 2022).
